We go through 44 molecules from patent US9139577B2, “Sulfoximine substituted quinazolines for pharmaceutical compositions” (Boehringer Ingelheim International GmbH, priority 2013, dated 2015).

Assay [1] deals with MNK2 (MNK2a or MNK2b) or MNK1. The note with it: cell culture cells transfected with MNK2 (MNK2a or MNK2b) or MNK1; cited from earlier work.
In assay [2] the target is MNK1 (Homo sapiens (Human), UniProt Q9BUB5). The experiment in a line: MNK1 in vitro kinase assay (Assay 3), Z'-LYTE. In kind it is biochemical. The note with it: for inhibition at 1 µM: compound concentration of 1 μM, read-out: MNK1 % INH. An outline of the steps: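 Pre-activated GST-MNK1a phosphorylated a FRET peptide for 60 min at room temperature in HEPES pH 7.5 buffer with Mg2+/Mn2+, EGTA and DTT, with 1% DMSO final. Protease development followed for 60 min.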
MNK1, sequence (Q9BUB5 other isoform, or with tags, fused parts or gaps): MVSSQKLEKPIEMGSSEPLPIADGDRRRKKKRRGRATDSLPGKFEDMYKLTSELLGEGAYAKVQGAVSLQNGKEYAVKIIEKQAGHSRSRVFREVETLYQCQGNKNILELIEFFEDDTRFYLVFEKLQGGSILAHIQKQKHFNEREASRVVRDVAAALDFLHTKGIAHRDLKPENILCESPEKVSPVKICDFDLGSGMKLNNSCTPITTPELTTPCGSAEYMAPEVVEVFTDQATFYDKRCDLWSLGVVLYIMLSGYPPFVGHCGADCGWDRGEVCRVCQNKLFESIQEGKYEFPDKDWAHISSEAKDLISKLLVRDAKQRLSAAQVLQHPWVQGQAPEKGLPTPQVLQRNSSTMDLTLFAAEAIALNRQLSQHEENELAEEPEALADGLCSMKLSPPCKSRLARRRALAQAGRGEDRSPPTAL

Assay [3] has as its target MNK2a (Homo sapiens (Human), UniProt Q9HBH9). Nature of the assay: MNK2a in vitro kinase assay (Assay 2), ADP-Glo. In kind it is biochemical. The note with it: read-out: MNK2 IC50. A general note: In ADP-Glo the light output rises with the ADP produced.

MNK2a, sequence (Q9HBH9 whole entry): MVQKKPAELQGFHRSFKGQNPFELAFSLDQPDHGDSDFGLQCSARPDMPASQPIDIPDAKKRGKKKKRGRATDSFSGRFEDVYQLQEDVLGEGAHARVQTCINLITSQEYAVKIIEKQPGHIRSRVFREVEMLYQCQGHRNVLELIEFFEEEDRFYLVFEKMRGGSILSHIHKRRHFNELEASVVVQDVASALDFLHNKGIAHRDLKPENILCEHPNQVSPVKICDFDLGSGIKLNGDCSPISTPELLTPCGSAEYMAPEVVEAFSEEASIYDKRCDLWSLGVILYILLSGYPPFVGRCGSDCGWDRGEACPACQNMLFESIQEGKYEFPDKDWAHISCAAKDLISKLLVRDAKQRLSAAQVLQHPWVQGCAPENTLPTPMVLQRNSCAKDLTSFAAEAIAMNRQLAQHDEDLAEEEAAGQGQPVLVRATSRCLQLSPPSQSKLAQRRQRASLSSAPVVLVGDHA

For the molecule `Nc1ncnc2n[nH]c(Nc3ccc(F)cc3)c12` [CGP57380], in assay [1], the “reduction of phosphorylated eIF4E” value is “strong reduction of phosphorylated eIF4E”.
What is called IC50 is the point on the concentration scale where inhibition reaches its midpoint. For the molecule `Cc1cc(N=S2(=O)CCCC2)cc2ncnc(Nc3ccc(F)cc3O[C@H](C)C(=O)N(C)CC(C)C)c12` [Example 4.052], the inhibition at 1 µM in assay [2] was 94%. The half-inhibitory concentration (IC50) in assay [3] came to 3 nM.
For `Cc1cc(N=S(C)(C)=O)cc2ncnc(Nc3ccc(F)cc3O[C@H](C)C(=O)N(C)C3CCCC3)c12` [Example 4.053] the same measures were 80% and 16 nM.
For `Cc1cc(N=S2(=O)CCCC2)cc2ncnc(Nc3ccc(F)cc3O[C@H](C)C(=O)N3CCC(=O)CC3)c12` [Example 4.054] the same measures were 95% and 9 nM.
The matching figures for `COCCN(C)C(=O)[C@@H](C)Oc1cc(F)ccc1Nc1ncnc2cc(N=S(C)(C)=O)cc(C)c12` [Example 4.055]: 62% and 14 nM.
For `Cc1cc(N=S(C)(C)=O)cc2ncnc(Nc3ccc(F)cc3O[C@H](C)C(=O)N3CCN(C)CC3)c12` [Example 4.056], the inhibition at 1 µM in assay [2] was 74%. The half-maximal inhibitory concentration (IC50) in assay [3] is 25 nM.
The matching figures for `Cc1cc(N=S2(=O)CCCC2)cc2ncnc(Nc3ccc(F)cc3O[C@H](C)C(=O)N[C@H]3CCOC3)c12` [Example 4.057]: 102% and 2 nM.
Turning to `Cc1cc(N=S2(=O)CCCC2)cc2ncnc(Nc3ccc(F)cc3O[C@H](C)C(=O)NCC(C)(C)O)c12` [Example 4.058], the results for the concentration for half-maximal inhibition (IC50) in assay [2] and in assay [3] were 75 nM and 3 nM, respectively.
In the case of `COC1CCN(C(=O)[C@@H](C)Oc2cc(F)ccc2Nc2ncnc3cc(N=S4(=O)CCCC4)cc(C)c23)CC1` [Example 4.059], the inhibition at 1 µM in assay [2] was found to be 90%. In addition, in assay [3], the half-inhibitory concentration (IC50) turned out to be 4 nM.
For `Cc1cc(N=S(C)(C)=O)cc2ncnc(Nc3ccc(F)cc3O[C@H](C)C(=O)NC(C)C)c12` [Example 4.060] the same measures were 99% and 2 nM.
The matching figures for `Cc1cc(N=S(C)(C)=O)cc2ncnc(Nc3ccc(F)cc3O[C@H](C)C(=O)N(C)CCO)c12` [Example 4.061]: 70% and 13 nM.
The matching figures for `Cc1cc(N=S(C)(C)=O)cc2ncnc(Nc3ccc(F)cc3O[C@H](C)C(=O)N3CCCCC3)c12` [Example 4.062]: 88% and 13 nM.
As to `Cc1cc(N=S2(=O)CCCC2)cc2ncnc(Nc3ccc(F)cc3O[C@H](C)C(=O)N(C)CCc3ccccc3)c12` [Example 4.063], the inhibition at 1 µM in assay [2] amounted to 56%. The IC50 in assay [3] was found to be 10 nM.
Regarding `Cc1cc(N=S(C)(C)=O)cc2ncnc(Nc3ccc(F)cc3O[C@H](C)C(=O)N(C)C(C)C)c12` [Example 4.064], the inhibition at 1 µM in assay [2] was 82%. In assay [3], the IC50 amounted to 8 nM.
The matching figures for `Cc1cc(N=S(C)(C)=O)cc2ncnc(Nc3ccc(F)cc3O[C@H](C)C(=O)N[C@@H]3CCC[C@H]3O)c12` [Example 4.065]: 93% and 9 nM.
For `Cc1cc(N=S2(=O)CCCC2)cc2ncnc(Nc3ccc(F)cc3O[C@H](C)C(=O)N3CCCCC3)c12` [Example 4.067] the same measures were 97% and 3 nM.
The matching figures for `CCN(C)C(=O)[C@@H](C)Oc1cc(F)ccc1Nc1ncnc2cc(N=S(C)(C)=O)cc(C)c12` [Example 4.068]: 86% and 4 nM.
`Cc1cc(N=S(C)(C)=O)cc2ncnc(Nc3ccc(F)cc3O[C@H](C)C(=O)NCC(C)(C)O)c12` [Example 4.069]: the inhibition at 1 µM in assay [2] came to 93%. Moreover, the IC50 in assay [3] was 6 nM.
In the case of `Cc1cc(N=S(C)(C)=O)cc2ncnc(Nc3ccc(F)cc3O[C@H](C)C(=O)NCC(F)(F)F)c12` [Example 4.071], the figures for the concentration for half-maximal inhibition (IC50) in assay [2] and in assay [3] were 55 nM and 1 nM, respectively.
Consider `Cc1cc(N=S2(=O)CCCC2)cc2ncnc(Nc3ccc(F)cc3O[C@H](C)C(=O)NCCO)c12` [Example 4.072], for which the inhibition at 1 µM in assay [2] stood at 98%. In addition, the IC50 in assay [3] was 3 nM.
Regarding `Cc1cc(N=S2(=O)CCCC2)cc2ncnc(Nc3ccc(F)cc3O[C@H](C)C(=O)NCC(F)(F)F)c12` [Example 4.074], the IC50 is 38 nM in assay [2] and 1 nM in assay [3].
Regarding `Cc1cc(N=S2(=O)CCCC2)cc2ncnc(Nc3ccc(F)cc3O[C@H](C)C(=O)N[C@@H]3CCC[C@@H]3O)c12` [Example 4.075], in assay [2], the inhibition at 1 µM came out at 90%. For the same molecule, in assay [3], the IC50 was 9 nM.
As to `Cc1cc(N=S(C)(C)=O)cc2ncnc(Nc3ccc(Cl)cc3O[C@H](C)C(=O)N[C@@H](C)C(F)(F)F)c12` [Example 4.088], in assay [2], inhibition was half-maximal at 36 nM (IC50) and the inhibition at 1 µM amounted to 99%. In addition, the 50% inhibitory concentration (IC50) in assay [3] came out at 2 nM.
For `C[C@@H](Oc1cc(F)ccc1Nc1ncnc2cc(N=S3(=O)CCC3)cc(F)c12)C(=O)NCC(F)(F)F` [Example 4.100] the same measures were 14 nM, 97% and 2 nM.
As for `Cc1cc(N=S2(=O)CCC2)cc2ncnc(Nc3ccc(F)cc3O[C@H](C)C(=O)N[C@@H](C)C(F)(F)F)c12` [Example 4.104], the inhibition at 1 µM in assay [2] was determined as 100%. Besides, the IC50 in assay [3] worked out at 1 nM.
Consider `C[C@H](NC(=O)[C@@H](C)Oc1cc(F)ccc1Nc1ncnc2cc(N=S(C)(C)=O)cc(F)c12)C(F)(F)F` [Example 4.118], for which, in assay [2], the IC50 turned out to be 21 nM and the inhibition at 1 µM was determined as 99%. The IC50 in assay [3] came out at 3 nM.
The matching figures for `C[C@H](NC(=O)[C@@H](C)Oc1cc(F)ccc1Nc1ncnc2cc(N=S3(=O)CCC3)cc(F)c12)C(F)(F)F` [Example 4.136]: 29 nM, 93% and 1 nM.
For `C[C@@H](Oc1cc(F)ccc1Nc1ncnc2cc(N=S3(=O)CCC3)cc(Cl)c12)C(=O)NCC(F)(F)F` [Example 4.138] the same measures were 27 nM, 64% and 1 nM.
With `Cc1cc(N=S(C)(C)=O)cc2ncnc(Nc3ccc(F)cc3O[C@@H](C)CNS(C)(=O)=O)c12` [Example 5.001], in assay [2], the inhibition at 1 µM came to 97%. The IC50 in assay [3] stood at 1 nM.
For `CC(=O)NC[C@H](C)Oc1cc(F)ccc1Nc1ncnc2cc(N=S(C)(C)=O)cc(C)c12` [Example 5.002] the same measures were 88% and 7 nM.
For `Cc1cc(N=S(C)(C)=O)cc2ncnc(Nc3ccc(F)cc3O[C@H](C)CNS(C)(=O)=O)c12` [Example 5.003], the inhibition at 1 µM in assay [2] was found to be 38%. Besides, the IC50 in assay [3] came to 83 nM.
Take `Cc1cc(N=S(C)(C)=O)cc2ncnc(Nc3ccc(F)cc3O[C@@H](C)CNC(=O)C(F)(F)F)c12` [Example 5.004]: the IC50 in assay [2] turned out to be 66 nM; in assay [3], 2 nM.
For `CC(=O)N1CCS(=O)(=Nc2cc(C)c3c(Nc4ccc(F)cc4O[C@H](C)c4cc(C)no4)ncnc3c2)CC1` [Example 5.005], the inhibition at 1 µM in assay [2] stood at 95%. In addition, the IC50 in assay [3] turned out to be 2 nM.
The matching figures for `CCNC(=O)NC[C@@H](C)Oc1cc(F)ccc1Nc1ncnc2cc(N=S(C)(C)=O)cc(C)c12` [Example 5.006]: 78% and 29 nM.
For the molecule `COCC(=O)N1CCS(=O)(=Nc2cc(C)c3c(Nc4ccc(F)cc4O[C@H](C)c4cc(C)no4)ncnc3c2)CC1` [Example 5.007], the inhibition at 1 µM in assay [2] worked out at 97%. For the same molecule, the concentration for half-maximal inhibition (IC50) in assay [3] is 4 nM.
For the molecule `CCNC(=O)N1CCS(=O)(=Nc2cc(C)c3c(Nc4ccc(F)cc4O[C@H](C)c4cc(C)no4)ncnc3c2)CC1` [Example 5.008], the figures for the IC50 in assay [2] and in assay [3] were 39 nM and 2 nM, respectively.
Turning to `CC(=O)NC[C@@H](C)Oc1cc(F)ccc1Nc1ncnc2cc(N=S(C)(C)=O)cc(C)c12` [Example 5.009], the inhibition at 1 µM in assay [2] is 74%. Also, the concentration for half-maximal inhibition (IC50) in assay [3] turned out to be 35 nM.
The matching figures for `Cc1cc(N=S(C)(C)=O)cc2ncnc(Nc3ccc(F)cc3O[C@H](C)CNC(=O)C(F)(F)F)c12` [Example 5.010]: 62% and 28 nM.
Take `Cc1cc(N=S(C)(C)=O)cc2ncnc(Nc3ccc(F)cc3O[C@H](C)CNS(=O)(=O)C(F)(F)F)c12` [Example 5.011]: the inhibition at 1 µM in assay [2] is 27%. In assay [3], the IC50 is 99 nM.
As to `CCC(=O)NC[C@@H](C)Oc1cc(F)ccc1Nc1ncnc2cc(N=S(C)(C)=O)cc(C)c12` [Example 5.012], the inhibition at 1 µM in assay [2] was determined as 61%. Moreover, in assay [3], the concentration for half-maximal inhibition (IC50) was 56 nM.
For `Cc1cc([C@@H](C)Oc2cc(F)ccc2Nc2ncnc3cc(N=S4(=O)CCN(C)CC4)cc(C)c23)on1` [Example 7.001], the inhibition at 1 µM in assay [2] was found to be 98%. In addition, the IC50 in assay [3] stood at 1 nM.
For `COc1cc(N=S(C)(C)=O)cc2ncnc(Nc3ccc(F)cc3OC(C)c3cc(C)no3)c12` (centres unmarked) [Example 7.003] the same measures were 102% and 2 nM.
The matching figures for `Cc1cc(N=S(C)(C)=O)cc2ncnc(Nc3ccc(F)cc3OC(C)C#N)c12` (centres unmarked) [Example 7.005]: 93% and 3 nM.
Take `Cc1cc(N=S2(=O)CCCC2)cc2ncnc(Nc3ccc(F)cc3OC(C)C#N)c12` (centres unmarked) [Example 7.008]: the inhibition at 1 µM in assay [2] was found to be 99%. In assay [3], the 50% inhibitory concentration (IC50) amounted to 3 nM.
